Test systems include M14 melanoma; PC-3 prostate; NCI/ADR-RES ovarian; HT29 colon; SK-MEL-5 melanoma; SN12C renal; UACC-62 melanoma; MDA-MB-231 breast; OVCAR-3 ovarian; RXF 393 renal.
What all share (test): NCI anticancer screen, dose series, 48 h

Experimental findings from PubChem BioAssay (NCI) are described below.

“And” between values parts separate entries of the source, which are not always exact repeats. Equal entries are not always repeated.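 The compound was tested at five concentrations on cells cultured in 96-well plates, with a 48-hour exposure period. The concentration for 50% growth inhibition is given as GI50. At the TGI there is no net growth.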

Take `CCC1=C(c2ccc(OC)cc2)C(C)(C)Oc2c1ccc(O)c2CN1CCCC1`: the GI50 in the test on M14 melanoma was 1.65 µM; in the test with PC-3 prostate it was 2.58 µM; in the test on NCI/ADR-RES ovarian, 3.05 µM; with HT29 colon, 3.14 µM; in the test with SK-MEL-5 melanoma, 1.3 µM; in the test with SN12C renal, 3.74 µM. Besides, the GI50 in the test with UACC-62 melanoma is 1.81 µM; in the test on MDA-MB-231 breast, 2.39 µM; in the test with OVCAR-3 ovarian, 4.13 µM; with RXF 393 renal it was 1.24 µM. The TGI in the test with M14 melanoma is 3.39 µM; in the test with PC-3 prostate, 29.3 µM; in the test on NCI/ADR-RES ovarian, 16 µM; with HT29 colon, 8.94 µM; in the test with SK-MEL-5 melanoma, 2.57 µM; in the test on SN12C renal, above 100 µM. The TGI in the test with UACC-62 melanoma was found to be 3.86 µM; with MDA-MB-231 breast it was 4.97 µM; with OVCAR-3 ovarian it was 36.2 µM; in the test on RXF 393 renal, 3.87 µM.

`COc1cc2nc(Nc3cccc(Cl)c3)nc(N)c2cc1OC`: the GI50 was 1.87 µM in the test on M14 melanoma; 6.82 µM in the test with PC-3 prostate; 7.61 µM with NCI/ADR-RES ovarian; 3.23 µM in the test on HT29 colon; 3.27 µM with SK-MEL-5 melanoma; 12 µM in the test on SN12C renal. Further, the GI50 with UACC-62 melanoma was 13 µM; in the test on MDA-MB-231 breast, 4.28 µM; with OVCAR-3 ovarian, 4.12 µM; in the test on RXF 393 renal it was 16.9 µM. The TGI was determined as 3.73 µM in the test with M14 melanoma; 21 µM in the test on PC-3 prostate; 33.9 µM in the test on NCI/ADR-RES ovarian; 12.4 µM with HT29 colon; 11.2 µM in the test with SK-MEL-5 melanoma; 24.3 µM in the test with SN12C renal. For the same compound, the TGI with UACC-62 melanoma was determined as 25.7 µM; with MDA-MB-231 breast, 14.5 µM; with OVCAR-3 ovarian, 12.6 µM; in the test with RXF 393 renal, 31.3 µM.

On to `COc1cc(-n2ccnc2-c2ccc3ccccc3c2)cc(OC)c1OC`, for which the GI50 was 0.0376 µM in the test with M14 melanoma; 0.03 µM with PC-3 prostate; below 0.0222 µM in the test on HT29 colon; below 0.0198 µM with SK-MEL-5 melanoma; 1.64 µM with SN12C renal; 0.0657 µM with UACC-62 melanoma. The GI50 is 0.571 µM with MDA-MB-231 breast, 0.0288 µM with OVCAR-3 ovarian and 0.17 µM in the test on RXF 393 renal. The TGI was 1.02 µM with M14 melanoma; above 85.8 µM with PC-3 prostate; 0.472 µM with NCI/ADR-RES ovarian; above 37.6 µM with HT29 colon; 12.3 µM with SK-MEL-5 melanoma; above 59 µM in the test on SN12C renal. Besides, the TGI is 15.4 µM with UACC-62 melanoma, 44.1 µM in the test on MDA-MB-231 breast, 19.4 µM in the test with OVCAR-3 ovarian and 0.749 µM with RXF 393 renal.

In the case of `Cc1c(CN2CCN(C(=O)[C@H](C)O)CC2)sc2c(N3CCOCC3)nc(-c3cnc(N)nc3)nc12`, the GI50 in the test with M14 melanoma was 0.326 µM and 0.0936 µM; with PC-3 prostate, 0.122 µM and 0.0753 µM; in the test on NCI/ADR-RES ovarian it was 0.663 µM and 0.408 µM; with HT29 colon, 0.207 µM and 0.174 µM; with SK-MEL-5 melanoma, 0.397 µM and 0.174 µM; with SN12C renal, 0.179 µM and 0.174 µM. Further, the GI50 with UACC-62 melanoma is 0.1 µM and 0.11 µM; with MDA-MB-231 breast it was 0.515 µM and 0.384 µM; with OVCAR-3 ovarian it was 0.202 µM and 0.182 µM; in the test on RXF 393 renal, 0.0603 µM and 0.119 µM. Moreover, the TGI in the test on M14 melanoma was > 9.28 µM and 1.44 µM; with PC-3 prostate, above 100 µM; in the test with NCI/ADR-RES ovarian, above 30.2 µM; in the test on HT29 colon it was above 56.8 µM; in the test on SK-MEL-5 melanoma it was 2.15 µM and 0.741 µM; in the test with SN12C renal it was above 100 µM. The TGI in the test on UACC-62 melanoma was 0.917 µM and 0.467 µM; with MDA-MB-231 breast, above 40.6 µM; with OVCAR-3 ovarian, 5.4 µM and 2.18 µM; in the test on RXF 393 renal, 0.443 µM and 0.543 µM.

As for `CN1C(=O)CCC(N2C(=O)c3cccc(NCCOCCOCCNC(=O)c4cc5c(o4)C(=O)c4ccccc4C5=O)c3C2=O)C1=O` (centres undefined), the GI50 in the test on M14 melanoma is 1.35 µM; in the test with PC-3 prostate, 2.07 µM; in the test with NCI/ADR-RES ovarian it was 6.3 µM; in the test with HT29 colon it was 2.66 µM; in the test on SK-MEL-5 melanoma, 0.242 µM; in the test with SN12C renal, 1.41 µM. Besides, the GI50 with UACC-62 melanoma was 1.04 µM; in the test with MDA-MB-231 breast, 2.64 µM; in the test on OVCAR-3 ovarian, 1.53 µM; with RXF 393 renal, 1.82 µM. Moreover, the TGI stood at 2.74 µM in the test on M14 melanoma; 18 µM in the test with PC-3 prostate; 36.5 µM with NCI/ADR-RES ovarian; 6.98 µM with HT29 colon; 0.652 µM in the test with SK-MEL-5 melanoma; 2.79 µM with SN12C renal. In addition, the TGI with UACC-62 melanoma was found to be 2.35 µM; in the test with MDA-MB-231 breast it was 8.77 µM; with OVCAR-3 ovarian, 4 µM; with RXF 393 renal it was 3.79 µM.

Turning to `CC(=O)O.CN1[CH-]N(Cc2ccc(C#N)cc2)c2ccccc21.[Ag+]`, the GI50 is 16.9 µM in the test on M14 melanoma; 13.5 µM in the test with PC-3 prostate; above 100 µM in the test with NCI/ADR-RES ovarian; 21.6 µM in the test with HT29 colon; 12.7 µM in the test on SK-MEL-5 melanoma; 18.9 µM with SN12C renal. The GI50 is 16.4 µM in the test with UACC-62 melanoma, 18.2 µM in the test with MDA-MB-231 breast, 16.6 µM in the test on OVCAR-3 ovarian and 14 µM in the test with RXF 393 renal. Moreover, the TGI was 32.7 µM in the test on M14 melanoma; 28.5 µM in the test with PC-3 prostate; above 100 µM in the test on NCI/ADR-RES ovarian; 44.4 µM with HT29 colon; 27.6 µM in the test with SK-MEL-5 melanoma; 38.4 µM in the test on SN12C renal. Also, the TGI stood at 31 µM with UACC-62 melanoma, 36 µM in the test on MDA-MB-231 breast, 30.4 µM with OVCAR-3 ovarian and 28.3 µM in the test with RXF 393 renal.

With `Cc1ccc(CNc2ccc3nc(CCC4CCCCC4)[nH]c3c2)cc1`, the GI50 was 1.91 µM in the test on M14 melanoma; 2.39 µM in the test on PC-3 prostate; 2.69 µM in the test with NCI/ADR-RES ovarian; 1.88 µM with HT29 colon; 1.69 µM with SK-MEL-5 melanoma; 2.77 µM in the test with SN12C renal. Further, the GI50 in the test on UACC-62 melanoma is 1.74 µM; with MDA-MB-231 breast, 1.68 µM; in the test on OVCAR-3 ovarian, 3.06 µM; with RXF 393 renal, 2.06 µM. The TGI was determined as 3.9 µM in the test on M14 melanoma; 8.61 µM in the test on PC-3 prostate; 9.51 µM with NCI/ADR-RES ovarian; 5.19 µM in the test with HT29 colon; 3.09 µM in the test with SK-MEL-5 melanoma; 11.4 µM with SN12C renal. The TGI in the test with UACC-62 melanoma amounted to 3.4 µM; with MDA-MB-231 breast it was 3.33 µM; in the test with OVCAR-3 ovarian it was 11.4 µM; in the test on RXF 393 renal, 5.38 µM.

For `Oc1ccccc1-c1nn(CNc2ccc(Cl)cc2)c(=S)o1`, the GI50 is 28.3 µM in the test with M14 melanoma; above 100 µM with PC-3 prostate; 18.9 µM with NCI/ADR-RES ovarian; 24.2 µM in the test on HT29 colon; 2.31 µM in the test on SK-MEL-5 melanoma; 75.8 µM with SN12C renal. Moreover, the GI50 in the test with UACC-62 melanoma is 0.633 µM; in the test on MDA-MB-231 breast, above 100 µM; in the test on OVCAR-3 ovarian, 23.5 µM; with RXF 393 renal it was 19.9 µM. Besides, the TGI in the test on M14 melanoma was above 100 µM; in the test on PC-3 prostate, above 100 µM; in the test on NCI/ADR-RES ovarian, 79.7 µM; in the test on HT29 colon, 88.1 µM; in the test with SK-MEL-5 melanoma, above 100 µM; in the test with SN12C renal it was above 100 µM. Also, the TGI in the test on UACC-62 melanoma was above 100 µM; with MDA-MB-231 breast, above 100 µM; with OVCAR-3 ovarian, above 100 µM; with RXF 393 renal it was 48.5 µM.

For `CC1=C(C#N)C23C(=O)N(c4ccccc4)C(=O)C2=C(O)C=CC3(O)N1Cc1ccc(Cl)cc1Cl` (centres undefined), the GI50 is 3.43 µM in the test with M14 melanoma; 4.68 µM in the test with PC-3 prostate; 16.2 µM with NCI/ADR-RES ovarian; 1.97 µM in the test on HT29 colon; 5.19 µM in the test on SK-MEL-5 melanoma; 2.4 µM in the test on SN12C renal. Besides, the GI50 is 1.88 µM with UACC-62 melanoma, 3.93 µM with MDA-MB-231 breast, 2.89 µM with OVCAR-3 ovarian and 1.87 µM in the test on RXF 393 renal. Also, the TGI with M14 melanoma worked out at 16.1 µM; in the test with PC-3 prostate, 17.1 µM; in the test with NCI/ADR-RES ovarian, 39.5 µM; in the test on HT29 colon, 4.84 µM; in the test with SK-MEL-5 melanoma, 17 µM; in the test with SN12C renal, 6.83 µM. The TGI amounted to 4.4 µM in the test with UACC-62 melanoma, 16.1 µM in the test on MDA-MB-231 breast, 4.96 µM with OVCAR-3 ovarian and 3.87 µM in the test with RXF 393 renal.

Take `CCN1CCN(CCNc2nccc(-c3c(-c4ccc(F)c(O)c4)nc4occn34)n2)S1(=O)=O`: the GI50 with M14 melanoma was 4.28 µM; in the test with PC-3 prostate, 2.12 µM; with NCI/ADR-RES ovarian it was 3.01 µM; in the test on HT29 colon, 4.2 µM; in the test with SK-MEL-5 melanoma, 2.23 µM; in the test with SN12C renal it was 4.41 µM. Besides, the GI50 is 1.5 µM in the test on UACC-62 melanoma, 32.3 µM in the test on MDA-MB-231 breast, 4.44 µM in the test on OVCAR-3 ovarian and 2.51 µM in the test on RXF 393 renal. For the same compound, the TGI in the test with M14 melanoma was above 100 µM; with PC-3 prostate, above 100 µM; in the test with NCI/ADR-RES ovarian, above 100 µM; in the test with HT29 colon, above 100 µM; in the test on SK-MEL-5 melanoma, 5.89 µM; in the test with SN12C renal, above 100 µM. Further, the TGI was 6.56 µM with UACC-62 melanoma, above 100 µM with MDA-MB-231 breast, above 100 µM in the test with OVCAR-3 ovarian and above 100 µM with RXF 393 renal.

For the compound `CCCc1nn(C)c2c(=O)[nH]c(-c3cc(S(=O)(=O)N4CCN(C)CC4)ccc3OCC)nc12`, the GI50 in the test on M14 melanoma, with PC-3 prostate, with NCI/ADR-RES ovarian, in the test with HT29 colon, in the test on SK-MEL-5 melanoma and with SN12C renal was above 100 µM in each case. The GI50 in the test with UACC-62 melanoma, in the test on MDA-MB-231 breast, in the test on OVCAR-3 ovarian and in the test on RXF 393 renal was above 100 µM each time. Further, the TGI in the test on M14 melanoma, in the test with PC-3 prostate, in the test on NCI/ADR-RES ovarian, in the test on HT29 colon, in the test on SK-MEL-5 melanoma and in the test with SN12C renal was above 100 µM throughout. For the same compound, the TGI with UACC-62 melanoma, with MDA-MB-231 breast, in the test on OVCAR-3 ovarian and in the test on RXF 393 renal was above 100 µM in each case.
